# Laboratory results: patent publication US20050043245A1, “Non-mammalian GnRH analogs and uses thereof in the immune system” (priority 2003, published 2005)
# Square brackets hold non-standard residues; d marks the D form. Ends that are not written are not given here. Peptide text beside a SMILES is read from it. pGlu = O=C1CC[C@@H](C(=O)O)N1; azaGly = NNC(=O)O
# What was measured:
# [1] = test system: human leukocytes; assay: Cytokine release from cultured human leukocytes; type: cell-based; details: for effect on IL-4 production / effect on IL-8 production / effect on IL-10 production / effect on Interferon γ (INFγ) production: 2×10^−9 to 2×10^−7 M at 1, 3 and 20 hours; for activity on immune systems cytokines: compared among GnRH forms, varying doses
# Protocol: Tissues of the immune system have been examined for the ability of their cells in vitro to respond to GnRH II (SEQ ID NO: 6) in culture medium. The media from cell cultures of immune system tissues have been examined for the release of cytokine into the medium after incubation with and without GnRH II analog (SEQ ID NO: 2).
# Cell cultures of human leukocytes tissues have been prepared. […] The release of cytokines into the medium have been determined and compared for each form of GnRH studied.
# We studied the effect of cytokines primarily produced by T cells. […] Concentrations of 2×10^−9 to 2×10^−7 M at 1, 3 and 20 hours were studied.
# We have also studied cytokine produced primarily by B cells and macrophages. […] This is consistent with opposing activities followed by downregulation of the receptors with chronic high concentrations of the ligand.
# Using our GnRH II analog (SEQ ID NO: 2) an inhibition of GM-CSF was clearly apparent after 20 hours of exposure.
# [2] = test system: immune system receptor; assay: Immune system GnRH receptor binding; parameters: species or system human
# From the text: The receptor binding activity of non-mammalian GnRH (SEQ ID NO: 6 and SEQ ID NO: 7) and non-mammalian GnRH analogs (SEQ ID NO: 2 and SEQ ID NO: 4) of the present invention will be compared. There is a human non-mammalian GnRH receptor which is distinct from the GnRH I receptor at the pituitary. […] They have also been designed to limit degradation by the immune system enzymes, present in lymphatic circulation. Binding activity of the newly synthesized non-mammalian GnRH analogs (SEQ ID NO: 2 and SEQ ID NO: 4) has been studied in plasma.
# The newly synthesized non-mammalian GnRH analogs (SEQ ID NO: 2 and SEQ ID NO: 4) and other commercially available analogs have been used in receptor binding studies in plasma and enzyme stability study described here. On the basis of these studies, the most receptor potent and most enzyme-stable analogs have been chosen for further biopotency studies. GnRH receptors have been purified from the fractions from immune system tissues. The purification procedure for the GnRH receptor utilized ethanol precipatation of the receptor and not the GnRH. The remaining non-mammalian GnRH binding assays activity using ^125I-D-Arg-GnRH II-Aza-Gly-2^125 label and GnRH II have been performed. Receptors from two different tissues from the same type of immune system cells have been used to study each of these analogs. […]
# [3] = Whole blood, plasma and serum stability of GnRH II analog; type: in vitro ADME
# Protocol: FIG. 2 is a graph showing stability of GnRH II analog in blood and plasma. GnRH II Analog is stable throughout twenty-four hour of incubation in plasma and for the seventeen hours in serum following the initial serum formation.
# The enzymatic degradation of the non-mammalian GnRH (SEQ ID NO: 6) and its analog (SEQ ID NO: 2) were studied using whole blood and plasma stability studies. A peptidase present in the immune system was used. Non-mammalian GnRH analogs (SEQ ID NO: 2) were designed with these specific criteria in mind. The stability of these non-mammalian GnRH analogs (SEQ ID NO: 2) to the enzymatic activity of the peptidase and in immune system cells were examined.
# Each of these analogs was then studied for their ability to resist degradation over time of incubation with the immune system cells at 37° C. The reaction was stopped by freezing and the remaining GnRH I substrate, GnRH II substrate or non-mammalian analog was directly quantified by radioimmunoassay.
# Studies using whole immune system cells were also performed. […] FIG. 2 is a graph showing stability of GnRH II in blood and plasma.
# [4] = test system: placental GnRH receptor; details: cited from earlier work
# [5] = test system: rhesus monkeys; details: chronic administration, long-acting; cited from earlier work
# [6] = test system: T cells; details: effects only seen after twenty-four hours; cited from earlier work
# [7] = target: T1, human pituitary GnRH receptor (Homo sapiens, UniProt P30968); details: cited from earlier work
# T1 sequence (P30968 1-328): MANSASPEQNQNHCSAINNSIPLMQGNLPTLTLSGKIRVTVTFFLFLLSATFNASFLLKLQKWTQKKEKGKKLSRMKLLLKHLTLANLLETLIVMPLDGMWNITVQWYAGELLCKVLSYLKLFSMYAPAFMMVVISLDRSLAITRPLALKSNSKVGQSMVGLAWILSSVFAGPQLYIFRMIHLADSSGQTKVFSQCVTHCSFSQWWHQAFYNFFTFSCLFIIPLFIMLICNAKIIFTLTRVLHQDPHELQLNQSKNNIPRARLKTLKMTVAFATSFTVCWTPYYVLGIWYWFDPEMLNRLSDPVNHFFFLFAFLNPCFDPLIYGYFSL
# [8] = test system: human placental explants; details: in vitro; cited from earlier work
# [9] = after one hour of treatment, still observed at 3 and 20 hours
Compound,effect on IL-4 production [1],effect on IL-8 production [1],effect on IL-10 production [1],effect on Interferon γ (INFγ) production [1],"effect on Interleukin 12 (IL-12) [1, 9]",affinity for the immune system receptor relative to GnRH I [2],activity on immune systems cytokines [1],affinity for the placental GnRH receptor [4],affinity for the human pituitary GnRH receptor [7],further results
CCNC(=O)[C@@H]1CCCN1C(=O)[C@H](CCCNC(=N)N)NC(=O)[C@H](CC(C)C)NC(=O)[C@@H](COC(C)(C)C)NC(=O)[C@H](Cc1ccc(O)cc1)NC(=O)[C@H](CO)NC(=O)[C@H](Cc1c[nH]c2ccccc12)NC(=O)[C@H](Cc1cnc[nH]1)NC(=O)[C@@H]1CCC(=O)N1 [Buserelin],no effects,no effects,no effects,no effects,inhibited,,,,,
"N=C(N)NCCC[C@@H](NC(=O)[C@H](Cc1c[nH]cn1)NC(=O)[C@H](CO)NC(=O)[C@H](Cc1c[nH]c2ccccc12)NC(=O)[C@H](Cc1c[nH]cn1)NC(=O)[C@@H]1CCC(=O)N1)C(=O)N[C@@H](Cc1c[nH]c2ccccc12)C(=O)N[C@@H](Cc1ccc(O)cc1)C(=O)N1CCC[C@H]1C(=O)NNC(N)=O [GnRH II analog, D-Arg-GnRH II-aza-Gly-amide] ([pGlu]HWSH[dR]WYP[azaGly]-NH2)",no effects,no effects,no effects,no effects,inhibited,greater affinity,most active,,,stability in serum ([3]; seventeen hours in serum following the initial serum formation): stable; stability in plasma ([3]; throughout twenty-four hour of incubation in plasma): stable; effect on GM-CSF release ([1]; 20 hours): inhibition
"GnRH II: chicken II GnRH, natural non-mammalian GnRH isoform ([pGlu]HWSHGWYPG; ends and bridges not checked; listed as Gallus gallus)",no effects,no effects,no effects,no effects,,,greater activity,higher affinity,lesser affinity,"contraceptive effect [5]: effective contraceptive agent; T cells adhesion and homing [6]: stimulates; effect on Interleukin 12 (IL-12) ([1]; at 3 hours): inhibition; effect on GM-CSF release ([1]; high dose, 3 hrs): inhibits; effect on GM-CSF release ([1]; low dose, 3 hrs): potent stimulant"
"[N-Ac-Pro,D-p-Cl-Phe,D-Nal(2)]-GnRH I",,,,,,,,,,hCG production/release [8]: inhibition; placental prostanoids / basal prostaglandin production [8]: inhibited; progesterone production [8]: dramatically suppressed
salmon GnRH analog: salmon GnRH sequence modified at the 6 position using D-Arg and at the 10 position (ethylamide or aza-Gly^10-NH2),,,,,,greater affinity,,,,
salmon GnRH: natural non-mammalian GnRH isoform of salmon ([pGlu]HWSYGWLPG; ends and bridges not checked),,,,,,,,higher affinity,lesser affinity,
